From PMC12203525, “The insight into the biology of five homologous lectins produced by the entomopathogenic bacterium and nematode symbiont Photorhabdus laumondii” (Glycobiology, 2025)

Assays:
PLL3 = biological target: PLL3; design: method as in Faltinek et al. 2019; Fujdiarová et al. 2021; settings: PLL3 binding to the immobilized sugar, SPR; ref Faltinek et al. 2019; Fujdiarová et al. 2021; read-out: KD(app); cited from earlier work
PLL2 = biological target: PLL2; design: method as in Faltinek et al. 2019; Fujdiarová et al. 2021; settings: PLL2 binding to the immobilized sugar, SPR; ref Faltinek et al. 2019; Fujdiarová et al. 2021; read-out: KD(app); cited from earlier work
PLL4 [1] = biological target: T1, PLL4 (Photorhabdus laumondii subsp. laumondii, UniProt Q7N8I6); assay: SPR, apparent KD on immobilized sugar; design: species or system Photorhabdus laumondii subsp. laumondii TT01; settings: PLL4 binding to the immobilized sugar, 25 °C, read-out: KD(app)
T1 sequence (Q7N8I6 entry or part of it): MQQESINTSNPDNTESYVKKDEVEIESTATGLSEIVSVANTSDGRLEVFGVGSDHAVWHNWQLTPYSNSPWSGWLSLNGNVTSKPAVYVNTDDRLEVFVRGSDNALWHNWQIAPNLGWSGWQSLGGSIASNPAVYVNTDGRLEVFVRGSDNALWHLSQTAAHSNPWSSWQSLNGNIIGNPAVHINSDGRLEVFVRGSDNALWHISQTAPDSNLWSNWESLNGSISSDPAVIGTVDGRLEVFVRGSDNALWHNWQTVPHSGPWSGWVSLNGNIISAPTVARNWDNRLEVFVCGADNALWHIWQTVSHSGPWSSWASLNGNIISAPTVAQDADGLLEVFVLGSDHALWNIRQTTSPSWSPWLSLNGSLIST
Experimental: (§1) SPR experiments were carried out on BIAcore T200 or BIAcore S200 instruments (GE Healthcare, UK). Sugar moieties were immobilized on the chip surface using the standard procedures according to the manufacturer’s instructions. Measurements with immobilized MGMR were performed on the chip prepared previously (high-density chip) ([Fujdiarová et al. 2021]). Measurements with immobilized α-L-fucose were performed on the streptavidin chip (GE Healthcare, UK). Biotinylated α-L-fucose was immobilized on channel 2 to yield a final response of 29 RU, unmodified channel 1 was used as a control.
(§2) Measurements were performed in Tris buffer with the addition of 0.05% Tween 20 at a flow rate of 30 μl/min at 25 °C. […] 50 mM NaOH for 30 s (flow 30 μl/min) was used for chip regeneration. To determine KDs (app) towards MGMR, 2-fold dilution series of lectins was used (PLL: 0.048 – 50 μM, PLL4: 0.008 - 2 μM; PLL5: 1.9 – 500 nM). The data were evaluated with the BIAcore T200 or BIAcore S200 evaluation software using a steady state approach. To determine KD(app) towards α-L-fucose, 2-fold dilution series of lectins was used (PLL: 1.25 – 20 μM, PLL4: 0.39 – 12.5 μM; PLL5: 0.12 – 30 μM). The data were evaluated with the BIAcore T200 or BIAcore S200 evaluation software using a steady state approach (PLL5) or a single-cycle kinetics approach (PLL, PLL4). For SPR inhibition experiments on the MGMR channel, 250 nM PLL, 250 nM PLL4 or 62 nM PLL5, respectively, was used. Proteins of the given concentration were mixed with a concentration series of tested inhibitors (0.01 - 0.4 M). Proteins without an inhibitor were used as a control. The response of the lectin bound to the sugar surface at equilibrium was plotted against the concentration of inhibitor in order to determine IC50. The response in the appropriate blank channel was subtracted prior to all evaluations.

PLL = PLL (Photorhabdus laumondii subsp. laumondii, UniProt Q7N8J0); assay: SPR, apparent KD on immobilized sugar; design: species or system Photorhabdus laumondii subsp. laumondii TT01; settings: PLL binding to the immobilized sugar, 25 °C, read-out: KD(app)
Sequence of PLL (Q7N8J0 entry or part of it): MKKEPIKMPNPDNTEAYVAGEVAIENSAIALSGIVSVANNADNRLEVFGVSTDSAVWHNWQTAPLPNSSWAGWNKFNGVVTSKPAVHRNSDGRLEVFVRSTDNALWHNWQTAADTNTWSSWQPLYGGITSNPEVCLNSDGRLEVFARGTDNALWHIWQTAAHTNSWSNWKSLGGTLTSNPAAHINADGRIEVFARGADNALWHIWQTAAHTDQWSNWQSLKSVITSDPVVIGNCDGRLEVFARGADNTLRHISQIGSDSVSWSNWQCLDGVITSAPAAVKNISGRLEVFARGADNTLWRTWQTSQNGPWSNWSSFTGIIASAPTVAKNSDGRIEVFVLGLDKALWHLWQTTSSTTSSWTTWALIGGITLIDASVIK
Experimental: as §1, §2

PLL5 = PLL5 (Photorhabdus laumondii subsp. laumondii, UniProt Q7N8I5); assay: SPR, apparent KD on immobilized sugar; design: species or system Photorhabdus laumondii subsp. laumondii TT01; settings: PLL5 binding to the immobilized sugar, 25 °C, read-out: KD(app)
Sequence of PLL5 (Q7N8I5 entry or part of it): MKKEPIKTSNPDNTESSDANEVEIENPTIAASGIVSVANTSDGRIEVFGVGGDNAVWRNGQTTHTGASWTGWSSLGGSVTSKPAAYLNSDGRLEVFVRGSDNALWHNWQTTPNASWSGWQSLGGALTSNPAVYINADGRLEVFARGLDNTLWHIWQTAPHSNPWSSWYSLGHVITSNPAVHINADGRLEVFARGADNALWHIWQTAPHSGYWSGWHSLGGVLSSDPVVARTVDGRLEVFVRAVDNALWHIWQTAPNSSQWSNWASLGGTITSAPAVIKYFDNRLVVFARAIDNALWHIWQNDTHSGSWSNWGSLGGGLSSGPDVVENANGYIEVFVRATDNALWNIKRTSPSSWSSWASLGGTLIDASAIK
Experimental: as §1, §2

PLL4 [2] = biological target: T1, PLL4; assay: Glycan microarray screening (634 saccharide ligands); type: binding, Photorhabdus laumondii subsp. laumondii TT01; settings: DyLight488-labelled PLL4, 200 μg/mL
Experimental: Lectins were fluorescently labelled with DyLight 488 according to the manufacturer’s instructions and the unbound dye was extensively dialyzed out of the protein solution. The microarray chip (Semiotik LLC, Moscow, Russia, batch OSPS280715) containing 634 saccharide ligands, each in 6 replicates, was treated with PBS (137 mM NaCl, 2.7 mM KCl, 8 mM Na2HPO4, […], pH 7.4) with added 0.1% Tween-20 for 15 min. The labelled proteins (200 μg/mL) were then separately applied to the chip surface and incubated in a humidity chamber at 37 °C for 1 h. After the incubation, the unbound protein was washed out with PBS containing 0.05% Tween-20 and deionized water. The chip was dried by airflow and scanned using an InnoScan1100 AL (Innopsys, Carbonne, France) with a 488 nm laser. The data were analyzed with the software Mapix 8.2.2 and an online glycan chip converter (Semiotic, https://rakitko.shinyapps.io/semiotik).

Row | Compound | Kd (PLL3) | Kd (PLL2) | Kd (PLL4 [1]) | Kd (PLL) | Kd (PLL5) | glycan array binding (in words) (PLL4 [2])
1 | α-L-fucoside | 322 ± 86 µM | 117 ± 4.8 µM | 4.3 ± 0.1 µM | 8.5 ± 0.2 µM | 64 ± 8.6 µM | recognized
2 | COC[C@H]1O[C@@H](O[C@@H]2[C@@H](OC)[C@@H](OC)[C@H](O)O[C@H]2C)[C@H](O)[C@@H](OC)[C@@H]1O [MGMR, 3,6-O-Me2-D-Glcβ1-4(2,3-O-Me2)-L-Rhaα] | 607 ± 46 µM | 0.0061 ± 0.0002 µM | 0.8 ± 0.06 µM | 44 ± 4.6 µM | 0.3 ± 0.03 µM | –
